Test results taken from US4315941A, “Urazole analogs of prostaglandin derivatives” (Beecham Group Limited, priority 1979, dated 1982).

These compounds were tested on 5-hydroxytryptamine or histamine induced bronchoconstriction (assay: Bronchodilation activity: inhibition of 5-hydroxytryptamine or histamine induced bronchoconstriction in the anaesthetised artificially respired guinea-pig (Konzett-Rossler preparation)). Conditions: Cavia porcellus, iv, 5-hydroxytryptamine or histamine induced bronchoconstriction (Konzett-Rossler).
Format: in vivo, guinear-pig
Source text: The compounds were examined for their ability to inhibit 5-hydroxytryptamine or histamine induced bronchoconstriction in the anaesthetised artificially respired guinear-pig (Konzett-Rossler preparation).

| SMILES | ED50 |
| --- | --- |
| CC(O)CCCC/C=C\Cn1c(=O)n(C)c(=O)n1CCC(C)(O)C1CCCCC1 (stereo not shown) [Compound 7] | 0.16 mg/kg |
| CCCCCCC(C)(O)CCn1c(=O)n(C)c(=O)n1CCCCCCCC(C)O (stereo not shown) [Compound 4] | 0.0042 mg/kg |
| CCCCC(C)C(C)(O)CCn1c(=O)n(C)c(=O)n1C/C=C\CCCCC(C)O (stereo not shown) [Compound 3] | 0.0175 mg/kg |
| CCCCC(C)C(C)(O)CCn1c(=O)n(C)c(=O)n1CCCCCCCCC(C)O (stereo not shown) [Compound 1, 1-(9'-Hydroxydecyl)-2-(3"-hydroxy-3",4"-dimethyloctyl)-4-methyl-1,2,4-triazolidine-3,5-dione] | 0.02 mg/kg |
